Laboratory results from patent US10610522B2, “Methods for retreating irritable bowel syndrome (IBS)” (Salix Pharmaceuticals, Inc., priority 2014, dated 2020).
Values joined by “and” are separate entries in the source; they are usually repeats but may differ in a detail not shown here. Identical values can stand only once.

Test system: non-constipation IBS
Test: Study 2 (TARGET 2): rifaximin 550 mg TID 14 days vs placebo in non-C IBS, 10-week follow-up
Format: in vivo, human
Method: The primary efficacy endpoint of the study was the proportion of subjects who achieved adequate relief of IBS symptoms for at least 2 weeks during the first 4 weeks of the 10-week follow-up phase.
Two measures of efficacy were assessed.
Subjects were questioned on the relief of overall IBS symptoms and bloating. […] The analyses defined success as a “yes” response to questions regarding adequate relief. […]
All subpopulations in the study responded to therapy. Baseline severity was determined during screening for Abdominal Pain/Discomfort and Bloating, and the number, type (normal, hard, loose) and urgency of bowel movements. Duration of effect was assessed in a ten week follow-up period. […]
In TARGET 1 and 2, the primary endpoint was the proportion of patients who achieved adequate relief of IBS symptoms for at least 2 of 4 weeks during the month following 14 days of treatment. Adequate relief was defined as a response of “yes” to the following weekly Subject Global Assessment (SGA) question: “In regards to your IBS symptoms, compared to the way you felt before you started study medication, have you, in the past 7 days, had adequate relief of your IBS symptoms? [Yes/No]”
The key secondary endpoint was the proportion of patients who achieved adequate relief of IBS-related bloating for at least 2 of 4 weeks during the month following 2 weeks of treatment. Adequate relief of IBS-related bloating was defined as a response of “yes” to the following weekly (every 7 days) SGA question: “In regards to your IBS symptom of bloating, compared to the way you felt before you started study medication, have you, in the past 7 days, had adequate relief of your IBS symptom of bloating? […]

[1] = 550 mg TID, Population: ITT (N = 315)
[2] = 550 mg TID, Population: PP (N = 311)
[3] = 550 mg TID, Weeks 3-6, Population: PP (N = 311)
[4] = 550 mg TID, at least 2 of Weeks 3-6, N = 315, LOCF
[5] = Age Group: <65 (N = 281), 550 mg TID, Weeks 3-6
[6] = Age Group: >=65, 550 mg TID, Weeks 3-6
[7] = Gender: Female (N = 226), 550 mg TID, Weeks 3-6
[8] = Gender: Male (N = 85), 550 mg TID, Weeks 3-6
[9] = IBS Subtype: Alternating-predominant, 550 mg TID, Weeks 3-6
[10] = IBS Subtype: Diarrhoea-predominant, 550 mg TID, Weeks 3-6
[11] = Race: Non-White (N = 31), 550 mg TID, Weeks 3-6
[12] = Race: White (N = 280), 550 mg TID, Weeks 3-6
[13] = Study 2, at least 2 weeks during PEP

CO[C@H]1/C=C/O[C@@]2(C)Oc3c(C)c(O)c4c(O)c(c5c(nc6cc(C)ccn65)c4c3C2=O)NC(=O)/C(C)=C\C=C\[C@H](C)[C@H](O)[C@@H](C)[C@@H](O)[C@@H](C)[C@H](OC(C)=O)[C@@H]1C [Rifaximin, (2S,16Z,18E,20S,21S,22R,23R,24R,25S,26S,27S,28E)-5,6,21,23,25 Pentahydroxy-27-methoxy-2,4,11,16,20,22,24,26-octamethyl-2,7-(epoxypentadeca-(1,11,13)trienimino) benzofuro (4,5-e) pyrido(1,2-a) benzimidazole-1,15(2H)-dione,25-acetate]
Subjects with skin or subcutaneous tissue disorders (550 mg TID): 1.3%
Adequate relief of IBS symptom of bloating based on daily measures, Failure [1]: 182 (57.8%) N (%)
Adequate relief of IBS symptom of bloating based on daily measures, Success [1]: 133 (42.2%) N (%)
Adequate relief of IBS symptoms based on daily measures, Failure [1]: 200 (63.5%) N (%)
Adequate relief of IBS symptoms based on daily measures, Success [1]: 115 (36.5%) N (%)
Adequate relief of IBS symptom of bloating based on daily measures, Failure [2]: 180 (57.9%) N (%)
Adequate relief of IBS symptom of bloating based on daily measures, Success [2]: 131 (42.1%) N (%)
Adequate relief of IBS symptoms based on daily measures, Failure [2]: 196 (63.0%) N (%)
Adequate relief of IBS symptoms based on daily measures, Success [2]: 115 (37.0%) N (%)
Adequate relief of IBS symptom of bloating (weekly SGA), Failure [3]: 187 (60.1%) N (%)
Adequate relief of IBS symptom of bloating (weekly SGA), Success [3]: 124 (39.9%) N (%)
Adequate relief of IBS symptoms (weekly SGA), Failure [3]: 187 (60.1%) N (%)
Adequate relief of IBS symptoms (weekly SGA), Success [3]: 124 (39.9%) N (%)
Adequate relief of IBS symptom of bloating (weekly SGA), Failure [4]: 190 (60.3%) n (%)
Adequate relief of IBS symptom of bloating (weekly SGA), Success [4]: 125 (39.7%) n (%)
Adequate relief of IBS symptoms (weekly SGA), Failure [4]: 190 (60.3%) n (%)
Adequate relief of IBS symptoms (weekly SGA), Success [4]: 125 (39.7%) n (%)
Subjects discontinued study early for Adverse Event/Serious Adverse Event (550 mg TID, randomized subjects (316)): 0 n (%)
Adequate relief of IBS symptom of bloating (weekly SGA), Failure [5]: 171 (60.9%) N (%)
Adequate relief of IBS symptom of bloating (weekly SGA), Success [5]: 110 (39.1%) N (%)
Adequate relief of IBS symptoms (weekly SGA), Failure [5]: 171 (60.9%) N (%)
Adequate relief of IBS symptoms (weekly SGA), Success [5]: 110 (39.1%) N (%)
Adequate relief of IBS symptom of bloating (weekly SGA), Failure [6]: 16 (53.3%) N (%)
Adequate relief of IBS symptom of bloating (weekly SGA), Success [6]: 14 (46.7%) N (%)
Adequate relief of IBS symptoms (weekly SGA), Failure [6]: 16 (53.3%) N (%)
Adequate relief of IBS symptoms (weekly SGA), Success [6]: 14 (46.7%) N (%)
Adequate relief of IBS symptom of bloating (weekly SGA), Failure [7]: 128 (56.6%) N (%)
Adequate relief of IBS symptom of bloating (weekly SGA), Success [7]: 98 (43.4%) N (%)
Adequate relief of IBS symptoms (weekly SGA), Failure [7]: 130 (57.5%) N (%)
Adequate relief of IBS symptoms (weekly SGA), Success [7]: 96 (42.5%) N (%)
Adequate relief of IBS symptom of bloating (weekly SGA), Failure [8]: 59 (69.4%) N (%)
Adequate relief of IBS symptom of bloating (weekly SGA), Success [8]: 26 (30.6%) N (%)
Adequate relief of IBS symptoms (weekly SGA), Failure [8]: 57 (67.1%) N (%)
Adequate relief of IBS symptoms (weekly SGA), Success [8]: 28 (32.9%) N (%)
Adequate relief of IBS symptom of bloating (weekly SGA), Failure [9]: 19 (55.9%) N (%)
Adequate relief of IBS symptom of bloating (weekly SGA), Success [9]: 15 (44.1%) N (%)
Adequate relief of IBS symptoms (weekly SGA), Failure [9]: 21 (61.8%) N (%)
Adequate relief of IBS symptoms (weekly SGA), Success [9]: 13 (38.2%) N (%)
Adequate relief of IBS symptom of bloating (weekly SGA), Failure [10]: 168 (60.6%) N (%)
Adequate relief of IBS symptom of bloating (weekly SGA), Success [10]: 109 (39.4%) N (%)
Adequate relief of IBS symptoms (weekly SGA), Failure [10]: 166 (59.9%) N (%)
Adequate relief of IBS symptoms (weekly SGA), Success [10]: 111 (40.1%) N (%)
Adequate relief of IBS symptom of bloating (weekly SGA), Failure [11]: 17 (54.8%) N(%)
Adequate relief of IBS symptom of bloating (weekly SGA), Success [11]: 14 (45.2%) N(%)
Adequate relief of IBS symptoms (weekly SGA), Failure [11]: 16 (51.6%) N(%)
Adequate relief of IBS symptoms (weekly SGA), Success [11]: 15 (48.4%) N(%)
Adequate relief of IBS symptom of bloating (weekly SGA), Failure [12]: 170 (60.7%) N (%)
Adequate relief of IBS symptom of bloating (weekly SGA), Success [12]: 110 (39.3%) N (%)
Adequate relief of IBS symptoms (weekly SGA), Failure [12]: 171 (61.1%) N (%)
Adequate relief of IBS symptoms (weekly SGA), Success [12]: 109 (38.9%) N (%)
IBS symptom of bloating: adequate relief at least 2 out of 4 weeks during weeks 3 through 6 (weekly question) (Study 2 / TARGET 2): 41%
Global IBS symptoms: adequate relief at least 2 out of 4 weeks during weeks 3 through 6 (weekly question) (Study 2 / TARGET 2, 550 mg TID 14 d): 41% and 32% vs 41%
Responders: abdominal pain reduction of 1 point in weekly mean [13]: 52%
Responders: abdominal pain reduction of 2 point in median [13]: 41%
Responders: abdominal pain reduction of 3 point in mean [13]: 6% vs 7%
Responders: abdominal pain reduction of 3 point in median [13]: 21%
Responders: daily abdominal pain < 2 for at least 50% of days in a week [13]: 39%
Responders: overall reduction of mean weekly abdominal pain by >= 25% [13]: 58%
